Molecular target: T1, ABCB1 (MDR1) (Homo sapiens, UniProt P08183)
T1 construct: endogenous full-length protein in intact Du145-DtxR cells, detected by western blot after heat shock
Test: cellular thermal shift assay (CETSA), western blot
Assay type: cell-based
Conditions: 5 µM, intact Du145-DtxR cells, 1 h at 37 °C, heat shock 44-52 °C; positive control

T1 sequence (P08183 whole entry): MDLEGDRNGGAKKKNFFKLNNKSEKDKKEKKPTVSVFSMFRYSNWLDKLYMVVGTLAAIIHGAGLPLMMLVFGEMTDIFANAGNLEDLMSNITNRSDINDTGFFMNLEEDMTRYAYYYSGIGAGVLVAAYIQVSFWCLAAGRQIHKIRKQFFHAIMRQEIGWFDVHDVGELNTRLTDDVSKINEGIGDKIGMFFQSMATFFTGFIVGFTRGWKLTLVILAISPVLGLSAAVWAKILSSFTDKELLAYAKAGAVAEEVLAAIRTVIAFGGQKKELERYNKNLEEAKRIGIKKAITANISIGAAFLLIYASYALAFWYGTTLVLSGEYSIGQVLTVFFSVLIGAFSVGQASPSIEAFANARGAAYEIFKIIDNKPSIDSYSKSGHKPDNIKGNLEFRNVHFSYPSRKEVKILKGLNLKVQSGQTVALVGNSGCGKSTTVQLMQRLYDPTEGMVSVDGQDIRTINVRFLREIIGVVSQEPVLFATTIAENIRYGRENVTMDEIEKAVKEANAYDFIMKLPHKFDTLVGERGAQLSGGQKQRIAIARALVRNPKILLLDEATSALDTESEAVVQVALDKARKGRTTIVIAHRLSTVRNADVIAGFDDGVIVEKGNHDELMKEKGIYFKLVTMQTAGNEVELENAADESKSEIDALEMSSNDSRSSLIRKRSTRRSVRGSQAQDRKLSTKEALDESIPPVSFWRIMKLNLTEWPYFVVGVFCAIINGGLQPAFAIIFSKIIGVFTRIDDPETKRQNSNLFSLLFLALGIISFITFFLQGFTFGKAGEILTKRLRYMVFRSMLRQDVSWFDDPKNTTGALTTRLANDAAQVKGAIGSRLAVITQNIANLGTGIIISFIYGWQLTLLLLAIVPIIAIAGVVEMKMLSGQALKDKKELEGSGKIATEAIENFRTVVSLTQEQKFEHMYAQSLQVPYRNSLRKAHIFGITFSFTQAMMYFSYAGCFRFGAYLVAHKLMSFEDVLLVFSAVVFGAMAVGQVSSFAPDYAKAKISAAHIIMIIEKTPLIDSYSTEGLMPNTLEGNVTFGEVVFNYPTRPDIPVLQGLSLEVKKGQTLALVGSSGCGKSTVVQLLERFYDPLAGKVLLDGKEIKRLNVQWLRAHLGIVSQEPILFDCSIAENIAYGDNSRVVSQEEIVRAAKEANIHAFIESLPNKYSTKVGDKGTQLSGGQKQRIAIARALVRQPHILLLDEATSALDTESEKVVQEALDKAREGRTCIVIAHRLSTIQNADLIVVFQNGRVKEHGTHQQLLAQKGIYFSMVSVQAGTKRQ

O[C@@H](COc1cccc2ncccc12)CN1CCN([C@@H]2c3ccccc3[C@@H]3[C@H](c4ccccc42)C3(F)F)CC1 [Zosuquidar]
cellular thermal shift assay (CETSA), western blot: it showed an ABCB1-binding compared to DMSO (Fig. 3H)
